Measured values: patent US5834010A, “Triacetin as a penetration enhancer for transdermal delivery of a basic drug” (priority 1997, dated 1998)
Read-outs that look alike come from different tables or passages of the source.

Assays:
[1] = In vitro human cadaver skin flux of oxybutynin free base from adhesive matrix patches (modified Franz cells)
Description: In vitro human cadaver skin flux studies were conducted using modified Franz non-jacketed permeation cells. The temperature of the cells was maintained at 32° C. by placing the cells in a circulating water bath positioned over a stirring module. The epidermal membrane was separated from the human cadaver whole skin by the heat-separation method of Kligman & Christopher, 88 Arch. Dermatol. 702 (1963), hereby incorporated by reference, involving treating the full thickness skin at 60° C. for 60 seconds, after which time the stratum corneum and the epidermis (epidermal membrane) were gently peeled from the dermis.
For skin flux studies of matrix devices, the epidermal membrane was cut into rectangular strips, and the matrix device was cut into 0.96 cm^2 circular discs. The release liner was peeled from the disc, and the disc was laminated onto the stratum corneum surface of the epidermal membrane to form a skin-matrix laminate. The skin-matrix laminate was then loaded between the donor and receiver compartments of a diffusion cell with the epidermal side facing the receiver compartment. The laminate was clamped in place, and the receiver compartment was then filled with an appropriate receiving solution for a selected drug. The receiving solution was selected such that the drug was stable in the solution, the subsequent assay of the drug was not interfered with, and solubility of the drug was adequate to ensure sink conditions throughout the experiment. The diffusion cell was then placed in a circulating water bath calibrated to maintain the skin surface temperature at 32°±1° C. At predetermined sampling intervals, the entire contents of the receiver compartment were collected for drug quantitation, and the receiver compartment was filled with fresh receiving solution, taking care to eliminate any air bubbles at the skin/solution interface.
The cumulative amount of drug permeating through the epidermal membrane, Qt (μg/cm^2), at any time t was determined from the following formula: [formula] where Cn is the concentration (μg/ml) of the drug in the receiver sample for the corresponding sample time, V is the volume of fluid in the receiver chamber (~6.3 cm^3), and A is the diffusional area of the cell (0.64 cm^2). The slope of the best fit line to the plot of Qt vs. t gives the steady state flux (Jss, μg/cm^2 /hr); the intercept of this line on the time axis give the lag time (tL,h).
Matrix patches containing varying amounts of oxybutynin free base and penetration enhancers were prepared and tested as described above. The matrix systems consisted of 5 to 20% by weight of oxybutynin free base and 0 to 20% by weight of the enhancer contained in a medical grade acrylic copolymer adhesive.
The matrix formulations were prepared as follows. First, the solids content of the adhesive was determined by weighing a small amount of the adhesive solution in a preweighed aluminum dish. The solvent was evaporated by overnight drying in a convection oven maintained at 80° C. and the weight of the residue (dry adhesive) and percent solid adhesive content of the solution were determined. Once the solids content was determined, a known weight of the acrylic copolymer adhesive solution was weighed into a glass bottle. From the weight of the adhesive solution and the percent solid adhesive content, the amount of adhesive in the solution was calculated. Oxybutynin free base and enhancer were added to the bottle in proportions to yield the selected final composition. The bottle was then tightly capped, sealed with laboratory film, and rotated overnight until all ingredients had completely dissolved and the resultant solution was visually clear.
Approximately 8 ml of the solution was then dispensed on a silanized polyester release liner and cast with a 10 mil gap casting knife. The casting was then dried in a convection oven at 70° C. for 15 minutes to evaporate the solvent and to yield a dried film approximately 0.002 inch thick.

[2] = In vitro human cadaver skin flux of oxybutynin free base from liquid reservoir gel formulations; assay type: in vitro ADME
Description: For skin flux studies of gel formulations (i.e., for liquid reservoir patch designs), the epidermal membrane was cut and placed between two halves of the permeation cell with the stratum corneum facing the donor compartment. The skin was allowed to hydrate at 32° C. overnight with 0.02% (w/v) sodium azide solution in the receiver compartment. The following morning, 75 μl of a gelled formulation was placed into a cavity created by placing a polytetrafluoroethylene washer over the stratum corneum surface. The cavity was then occluded by clamping an occlusive backing over the washer and gel. An appropriate receiving solution for a selected drug was placed in the receiver compartment in contact with the dermal side of the epidermis.
Liquid reservoir gel formulations containing oxybutynin free base and triacetin were tested as described above. Such liquid reservoir gel formulations were prepared in 10 ml quantities. Ethanol, water, glycerin, and triacetin were mixed in selected proportions in a capped vial. Then, 400 mg of oxybutynin free base was added to the vial, and the vial was capped and ultrasonicated to completely dissolve the drug. Next, 0.3 g of modified hydroxyethyl cellulose (NATROSOL PLUS 330CS, Aqualon, Wilmington, Del.) as a gelling agent was added to the mixture and the contents were mixed thoroughly and gently rotated overnight to completely dissolve the gelling agent.

[3] = Enhancement of transdermal penetration, general statement; assay type: in vitro ADME
Excerpt: As used herein, the terms "enhancement", "penetration enhancement" or "permeation enhancement" mean an increase in the permeability of a biological membrane (i.e. skin or mucosa) to a drug, so as to increase the rate at which the drug permeates through the membrane. "Permeation enhancer," "enhancer," "penetration enhancer," or similar term means a material that achieves such permeation enhancement, and an "effective amount" of an enhancer means an amount effective to enhance penetration through the skin or mucosa of a selected agent to a selected degree. The enhanced permeation as effected though the use of such enhancers can be observed, for example, by measuring the rate of diffusion of the drug through animal or human skin using a diffusion cell apparatus. Such a diffusion cell is described by Merritt et al., Diffusion Apparatus for Skin Penetration, 1 J. of Controlled Release 61 (1984), incorporated herein by reference.

[4] = propylene glycol/linoleic acid enhancer system; cited from earlier work
[5] = Allen, U.S. Pat. No. 4,895,727; cited from earlier work
[6] = plaster with glycol and surfactant, WO9309783-A1; cited from earlier work
[7] = isosorbide dinitrate, JP05148141-A; cited from earlier work

With `CN1CCCC1=O` [N-methyl pyrrolidone, reference compound] the “exhibited the ability to increase transdermal skin flux of oxybutynin free base” value [1] was “none of the well known penetration enhancers tested”.

For `CCCCCCCCCCCCCC(=O)OC(C)C` [isopropyl myristate, reference compound], the “exhibited the ability to increase transdermal skin flux of oxybutynin free base” value ([1]; matrix system, TSR adhesive) was “none of the well known penetration enhancers tested”.

In the case of `CC(=O)OCC(COC(C)=O)OC(C)=O` [triacetin, glyceryl triacetate], the “effect on skin flux of oxybutynin free base” value [1] is reported as “significantly increases the skin flux of oxybutynin free base”, the “penetration enhancement with liquid reservoir patches” value [2] is reported as “no penetration enhancement of basic drugs (including oxybutynin) or other drugs has been observed” and the “enhancing transdermal penetration of basic drugs” value ([3]; basic drugs, particularly pKa of about 8.0 or above, matrix patch) is reported as “effective in enhancing transdermal penetration of basic drugs”. The “enhancing transdermal penetration of neutral or acidic drugs” value ([3]; neutral or acidic drugs) was “not of neutral or acidic drugs”, the “flux of oxymorphone with increasing amounts of triacetin and decreasing linoleic acid” value [4] was “decreasing flux” and the “lag time for permeation of oxymorphone with increasing amounts of triacetin and decreasing linoleic acid” value [4] was “increasing lag time”. The antifungal activity [5] was “has activity as an antifungal agent”, the “percutaneous absorption of piroxicam” value [6] was “enhances percutaneous absorption of piroxicam” and the “penetration enhancing effect of triacetin” value [7] was “shown only in conjunction with a neutral, solvent-acting drug”.

In the case of `CCCCCCCC/C=C\CCCCCCCC(=O)OCC(O)CO` (centres unmarked) [glycerol monooleate, reference compound], the “exhibited the ability to increase transdermal skin flux of oxybutynin free base” value ([1]; matrix system, TSR adhesive) is reported as “none of the well known penetration enhancers tested”.

With `CCCCCCCCCCCCO` [lauryl alcohol, reference compound] the “exhibited the ability to increase transdermal skin flux of oxybutynin free base” value ([1]; matrix system, TSR adhesive) was “none of the well known penetration enhancers tested”.

For “sorbitan monooleate [reference compound]”, the “exhibited the ability to increase transdermal skin flux of oxybutynin free base” value ([1]; matrix system, TSR adhesive) was “none of the well known penetration enhancers tested”.
